# pIC50: −log10 of the molar value. Like-named read-outs stand apart in the source and are kept apart here.
# What was measured:
# [1] = system: hpol κ-deficient HAP-1 cells; assay: supF mutagenesis assay; conditions: 1 μM IAG-10, 24 h
# Procedure: HAP-1 hpol κ-proficient and hpol κ-deficient cells were cultured in 10 cm dishes to ~80% confluency in Iscove's modified Dulbecco's medium (Invitrogen) containing 10% (v/v) FBS supplemented with Ix antibiotic antimycotic solution (Sigma). They were transfected with unmodified (control) and methylmethanesulfonate (MMS)-modified pSP189 plasmid harboring the supF gene either in the absence or presence of 1 μM IAG-10. For plasmid modification with MMS, the pSP189 plasmid was first incubated with 100 mM MMS in 10 mM HEPES buffer (pH 7.5) containing 50 mM KCl, 5 mM MgCl2, and 1 mM dithiothreitol at RT for 1 h. The MMS-modified plasmid was then purified by ethanol precipitation and used in subsequent transfections, similar to the unmodified plasmid. […] The recovered plasmids (75-100 ng) were then transformed into E. coli MBM7070 strain by electroporation, and the transformed bacterial cells were plated on LB-agar plates containing 100 μg/mL ampicillin, 1 mM isopropyl-I-thio-fi-Dgalactopyranoside (IPTG) and 100 μg/mL X-gaL The resulting blue (nonmutated) and white (mutated) colonies were counted. The mutation frequency was calculated as the ratio of mutant (white) colonies to total (blue+white) colonies. At least 10 000 colonies were counted for each condition, and the results reported represent the mean (±SD) of experiments performed in biological triplicate.
# [2] = molecular target: T1, hRev1 (Homo sapiens, UniProt Q9UBZ9); assay: Gel-based primer extension assay; assay type: biochemical; conditions: 10 μM; 10 nM Rev1
# T1 construct: hRevl (residues 330-833); made in house
# T1 sequence (Q9UBZ9 330-833): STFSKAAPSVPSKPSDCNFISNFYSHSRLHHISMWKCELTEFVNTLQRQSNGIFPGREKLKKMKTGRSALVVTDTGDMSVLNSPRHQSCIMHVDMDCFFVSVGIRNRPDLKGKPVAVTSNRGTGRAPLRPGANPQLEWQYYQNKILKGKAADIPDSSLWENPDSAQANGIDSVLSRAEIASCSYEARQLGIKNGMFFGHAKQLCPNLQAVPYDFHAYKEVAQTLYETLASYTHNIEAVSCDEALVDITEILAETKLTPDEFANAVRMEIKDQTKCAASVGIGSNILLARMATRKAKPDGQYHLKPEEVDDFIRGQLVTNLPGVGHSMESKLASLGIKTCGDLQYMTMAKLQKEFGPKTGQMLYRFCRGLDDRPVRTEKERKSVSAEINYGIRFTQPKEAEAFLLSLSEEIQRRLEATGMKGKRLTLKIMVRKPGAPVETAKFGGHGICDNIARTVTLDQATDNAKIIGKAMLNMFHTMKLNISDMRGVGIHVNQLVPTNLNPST
# [3] = system: MCF7 cells; assay: BrdU ssDNA / propidium iodide flow cytometry; assay type: cell-based; conditions: PNR-7-48 0.5 μM + Mirin 100 μM, 48 hours
# Procedure: MCF7 cells were plated in 60 mm dishes at a confluency of 300,000 cells per dish and incubated overnight. Cells were treated the next day with BrdU (10 μM). The compounds were diluted in DMSO and added to the media at a final concentration of PNR-7-48 (0.5 μM) and Mirin (100 μM). The final concentration of DMSO was 0.1% (v/v). After 48 hours of treatment, media was removed and cells were washed in 1×PBS and trypsinized. Cells were then resuspended in media and centrifuged at 1500 rpm (calculate relative centrifugal force, RCF) for 5 minutes. The supernatant was removed, and again cells were washed and centrifuged. The supernatant was discarded and cells were resuspended in ice-cold 70% (v/v) ethanol prepared in 1×PBS while being vortexed. After overnight fixing at 4° C., cells were vortexed and centrifuged at 3000 rpm (RCF) for 10 minutes. Ethanol was removed leaving residual amounts for cell resuspension by vortexing. Fixed cells were stained with fluorescent anti-BrdU antibodies (FITC mouse anti-BrdU kit; 556028; BD) without prior acid treatment to detect only ssDNA. To confirm that the experimental cells had incorporated BrdU, aliquots of all nuclei were also denatured using HCL and then neutralized with sodium borate before staining with the anti-BrdU antibody. […] Samples were analyzed using the BD FACSCalibur Flow Cytometer in the UAMS Flow Cytometry Core. […]
# [4] = molecular target: T2, hpol κ (Homo sapiens, UniProt Q9UBT6); assay: Fluorescence-based (TAMRA/BHQ strand displacement) DNA polymerase activity assay
# T2 sequence (Q9UBT6 19-526): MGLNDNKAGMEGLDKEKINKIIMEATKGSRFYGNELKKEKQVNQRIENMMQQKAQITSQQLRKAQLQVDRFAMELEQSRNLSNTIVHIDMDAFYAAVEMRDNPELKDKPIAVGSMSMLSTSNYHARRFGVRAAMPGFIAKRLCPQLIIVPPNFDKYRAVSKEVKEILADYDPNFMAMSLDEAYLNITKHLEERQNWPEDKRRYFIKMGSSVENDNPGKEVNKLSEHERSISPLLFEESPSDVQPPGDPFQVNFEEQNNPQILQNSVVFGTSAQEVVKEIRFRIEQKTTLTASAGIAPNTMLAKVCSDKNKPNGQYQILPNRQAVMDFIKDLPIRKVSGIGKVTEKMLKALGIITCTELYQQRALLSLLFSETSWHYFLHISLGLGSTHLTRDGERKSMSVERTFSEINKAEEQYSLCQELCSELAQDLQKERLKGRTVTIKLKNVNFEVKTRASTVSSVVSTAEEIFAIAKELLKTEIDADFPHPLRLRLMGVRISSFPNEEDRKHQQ
# [5] = molecular target: T3, Tb pol I (Mycobacterium tuberculosis, UniProt P9WNU5); assay: Fluorescence-based polymerase assay, other pol families; assay type: biochemical; conditions: 10 μM; 10 nM Tb pol I (A-family)
# T3 construct: made in house
# [6] = system: NT2 cells; assay: Clonogenic survival assay; assay type: cell-based, human; conditions: IAG-10 and TMZ in combination
# T3 sequence (P9WNU5 whole entry): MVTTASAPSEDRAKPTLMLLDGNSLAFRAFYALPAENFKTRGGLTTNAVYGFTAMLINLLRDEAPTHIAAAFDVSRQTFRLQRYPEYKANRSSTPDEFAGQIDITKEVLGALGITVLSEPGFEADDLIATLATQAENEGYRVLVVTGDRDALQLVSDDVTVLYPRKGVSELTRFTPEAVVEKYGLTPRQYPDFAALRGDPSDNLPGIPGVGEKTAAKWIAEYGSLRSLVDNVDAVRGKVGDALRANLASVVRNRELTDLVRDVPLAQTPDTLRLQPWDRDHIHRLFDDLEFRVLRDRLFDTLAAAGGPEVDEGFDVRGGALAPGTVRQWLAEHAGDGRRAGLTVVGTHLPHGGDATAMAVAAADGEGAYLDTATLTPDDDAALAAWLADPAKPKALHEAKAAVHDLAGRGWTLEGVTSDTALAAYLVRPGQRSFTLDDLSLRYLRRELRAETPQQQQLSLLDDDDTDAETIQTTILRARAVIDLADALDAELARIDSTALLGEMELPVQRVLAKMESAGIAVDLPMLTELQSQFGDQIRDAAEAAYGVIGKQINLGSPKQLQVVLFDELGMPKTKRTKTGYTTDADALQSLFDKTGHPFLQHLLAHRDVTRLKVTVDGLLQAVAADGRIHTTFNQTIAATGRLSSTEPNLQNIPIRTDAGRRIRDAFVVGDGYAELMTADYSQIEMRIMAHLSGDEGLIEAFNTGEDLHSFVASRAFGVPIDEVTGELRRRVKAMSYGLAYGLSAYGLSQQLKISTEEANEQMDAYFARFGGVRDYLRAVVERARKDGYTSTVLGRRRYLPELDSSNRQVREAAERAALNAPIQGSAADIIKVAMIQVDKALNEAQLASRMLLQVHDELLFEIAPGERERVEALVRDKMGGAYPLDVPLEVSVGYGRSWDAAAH
structure (smiles),measurement,setting,value
"Cl.[H]/N=C(\N)NN=Cc1cn(C(=O)c2cccc3ccccc23)c2ccc(Cl)cc12 [IAG-10, (E)-2-((1-(1-naphthoyl)-5-chloro-1H-indol-3-y1)methylene)hydrazine-1-carboximidamide hydrochloride]",mutation frequency for control or MMS-damaged DNA,[1],did not alter the mutation frequency
same,polymerase activity relative to DMSO control,[2],only hpol κ was inhibited
same,cell death (sub-G1 cells),[3],increases
same,ssDNA gap formation (BrdU+ cells),[3],increases
same,polymerase activity relative to DMSO control,"[4]; 10 μM, 25 nM hpol κ, comparison with A, B, X family pols",only hpol κ activity was inhibited
same,% Activity Mean (hpol κ activity),"[4]; IAG compounds, 40 μM, rate relative to DMSO control, three independent experiments",0.0%
same,specificity for hpol κ over η,[4]; after altering the reaction conditions (lower enzyme and DNA),~ 30 fold
same,specificity for hpol κ over η,[4]; before altering the reaction conditions,~ 2 fold
same,pIC50,"[4]; read-out: IC50 against hpol κ, structure-activity study, 1 nM hpol κ, 50 nM DNA",5.14
same,pIC50,"[4]; read-out: IC50 for inhibition of hpol κ, 0.5 nM DNA, 0.1 nM hpol κ, 95% confidence interval in parentheses",6.14
same,pIC50,"[4]; read-out: IC50 for inhibition of hpol κ, 1 nM DNA, 95% confidence interval in parentheses",5.96
same,pIC50,"[4]; read-out: IC50 for inhibition of hpol κ, 2.5 nM DNA, 95% confidence interval in parentheses",5.85
same,pIC50,"[4]; read-out: IC50 for inhibition of hpol κ, 10 nM DNA, 95% confidence interval in parentheses",5.05
same,pIC50,"[4]; read-out: IC50 for inhibition of hpol κ, 25 nM DNA, 95% confidence interval in parentheses",5.05
same,pIC50,"[4]; read-out: IC50 for inhibition of hpol κ, 50 nM DNA, 95% confidence interval in parentheses",5.14
same,"turnover number (kcat), hpol κ-catalyzed dTTP insertion",[4]; steady-state kinetics with varying inhibitor concentration,sharp decrease
same,polymerase activity relative to DMSO control,[5],only hpol κ activity was inhibited
same,"colony formation ability, combination",[6],did not exhibit changes in colony formation ability

# Source: US12685733B2, “Indole molecules and use thereof in the inhibition of DNA polymerases” (BioVentures, LLC, priority 2019, dated 2026)
